{"source": "patent US6365191B1", "about": "“Formulations of paclitaxel, its derivatives or its analogs entrapped into nanoparticles of polymeric micelles, process for preparing same and the use thereof” (Dabur Research Foundation, priority 1999, dated 2002)", "test": "Stability of the resulting drug solutions (paclitaxel in nanoparticles of polymeric micelles)", "type": "physicochemical", "experimental": "The polymer (5 mg) was dissolved in 5 ml of the diluting fluid followed by the addition of the anionic surfactant sodium deoxycholate (5 mg) to obtain a clear solution. Paclitaxel solution in absolute alcohol (20 mg/ml) was then added to the solution of polymer and the surfactant to obtain drug concentrations of 0.1, 0.15 and 0.2 mg/ml. Different diluting fluids were tried and the stability of the resulting drug solutions are tabulated below:\nThe polymer (5 mg) was dissolved in 5 ml of the diluting fluid followed by the addition of the anionic surfactant sodium deoxycholate (5 mg) to obtain a clear solution. Paclitaxel solution in absolute alcohol (20 mg/ml) was then added to the solution of polymer and the surfactant to get drug concentrations of 0.2, 0.25 and 0.3 mg/ml. The stability of the resulting drug solutions are tabulated below:\nThe polymer (5 mg) was dissolved in 5 ml of the diluting fluid followed by the addition of the anionic surfactant sodium deoxycholate (5 mg) to obtain a clear solution. Paclitaxel solution in absolute alcohol (20 mg/ml) was then added to the solution of polymer and the surfactant to obtain drug concentrations of 0.2 mg/ml. Different diluting fluids were tried and the stability of the resulting drug solutions are tabulated below:\nThe polymer (5 mg) was dissolved in 5 ml of the diluting fluid followed by the addition of the anionic surfactant sodium deoxycholate (5 mg) to obtain a clear solution. pH of the resulting solution was adjusted with sodium citrate. Paclitaxel solution in absolute alcohol (20 mg/ml) was then added to the solution of polymer and the surfactant to obtain drug concentrations of 0.2 mg/ml. Results are tabulated below:\nThe requisite amount of polymer was dissolved in 5 ml of the diluting fluid followed by the addition of requisite amount of anionic surfactant sodium deoxycholate to obtain the concentrations shown in the table below. pH of the resulting solution was adjusted to 6.4-6.8 with sodium citrate. Paclitaxel solution in absolute alcohol (20 mg/ml) was then added to the solution of polymer and the surfactant to obtain drug concentrations of 0.2 mg/ml. Results are tabulated below:\nThe polymer (0.625 mg) was dissolved in 5 ml of the diluting fluid followed by the addition of the anionic surfactant sodium deoxycholate to obtain a clear solution. pH of the resulting solution was adjusted to 6.4-6.8 with sodium citrate.\nPaclitaxel solution in absolute alcohol (20 mg/ml) was then added to the solution of polymer and the surfactant to obtain drug concentrations of 0.2 mg/ml. Results are tabulated below:\nThe requisite amount of the polymer was dissolved in 5 ml of the diluting fluid followed by the addition of requisite amount of the anionic surfactant sodium deoxycholate to obtain the concentrations shown in the table below. pH of the resulting solution was adjusted to 6.4-6.8 with sodium citrate. Paclitaxel solution in absolute alcohol (20 mg/ml) was then added to the solution of polymer and the surfactant to get drug concentrations of 0.2, 0.5, 0.6, 0.7, 0.8, 2.4, 3.2, 4.0, and 10 mg/ml. Results are tabulated below:\nThe polymer (1.5 mg) was dissolved in 5 ml of the diluting fluid followed by the addition of the anionic surfactant sodium to obtain concentrations of 0, 0.10, 0.15, 0.20 and 0.25 mg/ml. pH of the resulting solution was adjusted to 6.4-6.8 with sodium citrate. Paclitaxel solution in absolute alcohol (20 mg/ml) was then added to the solution of polymer and the surfactant to obtain drug concentrations of 0.6 mg/ml. Results are tabulated below:\nThe required amount of the drug solution (3 ml) is added to the vehicle to obtain a drug concentration of 0.6 mg/ml. The perfusion fluid is stable for more than 12 hrs without any apparent signs of precipitation of drug. Stability is also indicated by the fact that more than 90% of the drug is available in solution form at the end of 24 hrs, when analyzed by HPLC.", "data": [{"smiles": "CC(=O)O[C@H]1C(=O)[C@@]2(C)[C@H]([C@H](OC(=O)c3ccccc3)[C@]3(O)C[C@H](OC(=O)[C@H](O)[C@@H](NC(=O)c4ccccc4)c4ccccc4)C(C)=C1C3(C)C)[C@]1(OC(C)=O)CO[C@@H]1C[C@@H]2O", "note": "[Paclitaxel, paclitaxel]", "values": [{"measurement": "Stability", "setting": "Examples 1-9, row 1: Water for Injection, polymer 1 mg/ml, sodium DOC 1 mg/ml, paclitaxel 0.10 mg/ml, 10% loading", "value": "<1", "unit": "h"}, {"measurement": "Stability", "setting": "Examples 1-9, row 2: Water for Injection, polymer 1 mg/ml, sodium DOC 1 mg/ml, paclitaxel 0.15 mg/ml, 15% loading", "value": "<1", "unit": "h"}, {"measurement": "Stability", "setting": "Examples 1-9, row 3: Water for Injection, polymer 1 mg/ml, sodium DOC 1 mg/ml, paclitaxel 0.20 mg/ml, 20% loading", "value": "<1", "unit": "h"}, {"measurement": "Stability", "setting": "Examples 1-9, row 4: Normal Saline, polymer 1 mg/ml, sodium DOC 1 mg/ml, paclitaxel 0.10 mg/ml, 10% loading", "value": "<1", "unit": "h"}, {"measurement": "Stability", "setting": "Examples 1-9, row 5: Normal Saline, polymer 1 mg/ml, sodium DOC 1 mg/ml, paclitaxel 0.15 mg/ml, 15% loading", "value": "<1", "unit": "h"}, {"measurement": "Stability", "setting": "Examples 1-9, row 6: Normal Saline, polymer 1 mg/ml, sodium DOC 1 mg/ml, paclitaxel 0.20 mg/ml, 20% loading", "value": "<1", "unit": "h"}, {"measurement": "Stability", "setting": "Examples 1-9, row 7: 5% Dextrose, polymer 1 mg/ml, sodium DOC 1 mg/ml, paclitaxel 0.10 mg/ml, 10% loading", "value": ">8", "unit": "h"}, {"measurement": "Stability", "setting": "Examples 1-9, row 8: 5% Dextrose, polymer 1 mg/ml, sodium DOC 1 mg/ml, paclitaxel 0.15 mg/ml, 15% loading", "value": ">6", "unit": "h"}, {"measurement": "Stability", "setting": "Examples 1-9, row 9: 5% Dextrose, polymer 1 mg/ml, sodium DOC 1 mg/ml, paclitaxel 0.20 mg/ml, 20% loading", "value": ">4", "unit": "h"}, {"measurement": "Stability", "setting": "Examples 10-12, row 1: 5% Dextrose, polymer 1 mg/ml, sodium DOC 1 mg/ml, paclitaxel 0.20 mg/ml, 20% loading", "value": ">4", "unit": "h"}, {"measurement": "Stability", "setting": "Examples 10-12, row 2: 5% Dextrose, polymer 1 mg/ml, sodium DOC 1 mg/ml, paclitaxel 0.25 mg/ml, 25% loading", "value": "<4", "unit": "h"}, {"measurement": "Stability", "setting": "Examples 10-12, row 3: 5% Dextrose, polymer 1 mg/ml, sodium DOC 1 mg/ml, paclitaxel 0.30 mg/ml, 30% loading", "value": "<4", "unit": "h"}, {"measurement": "Stability", "setting": "Examples 13-14, row 1: 5% Dextrose (pH 5.1), polymer 1 mg/ml, sodium DOC 1 mg/ml, paclitaxel 0.20 mg/ml, 20% loading", "value": ">4", "unit": "h"}, {"measurement": "Stability", "setting": "Examples 13-14, row 2: 10% Dextrose (pH 5.1), polymer 1 mg/ml, sodium DOC 1 mg/ml, paclitaxel 0.20 mg/ml, 20% loading", "value": ">6", "unit": "h"}, {"measurement": "Stability", "setting": "Examples 15-17, row 1: 10% Dextrose (pH 3.9), polymer 1 mg/ml, sodium DOC 1 mg/ml, sodium citrate 0.00 mg/ml, pH 6.28, paclitaxel 0.20 mg/ml", "value": "<1", "unit": "h"}, {"measurement": "Stability", "setting": "Examples 15-17, row 2: 10% Dextrose (pH 3.9), polymer 1 mg/ml, sodium DOC 1 mg/ml, sodium citrate 0.06 mg/ml, pH 6.36, paclitaxel 0.20 mg/ml", "value": ">6", "unit": "h"}, {"measurement": "Stability", "setting": "Examples 15-17, row 3: 10% Dextrose (pH 3.9), polymer 1 mg/ml, sodium DOC 1 mg/ml, sodium citrate 0.12 mg/ml, pH 6.53, paclitaxel 0.20 mg/ml", "value": ">4", "unit": "h"}, {"measurement": "Stability", "setting": "Examples 19-23, row 1: 10% Dextrose, polymer 1 mg/ml, sodium DOC 1 mg/ml, pH 6.45, paclitaxel 0.20 mg/ml", "value": ">6", "unit": "h"}, {"measurement": "Stability", "setting": "Examples 19-23, row 2: 10% Dextrose, polymer 0.5 mg/ml, sodium DOC 0.5 mg/ml, pH 6.44, paclitaxel 0.20 mg/ml", "value": ">6", "unit": "h"}, {"measurement": "Stability", "setting": "Examples 19-23, row 3: 10% Dextrose, polymer 0.25 mg/ml, sodium DOC 0.25 mg/ml, pH 6.46, paclitaxel 0.20 mg/ml", "value": ">6", "unit": "h"}, {"measurement": "Stability", "setting": "Examples 19-23, row 4: 10% Dextrose, polymer 0.125 mg/ml, sodium DOC 0.125 mg/ml, pH 6.47, paclitaxel 0.20 mg/ml", "value": ">6", "unit": "h"}, {"measurement": "Stability", "setting": "Examples 19-23, row 5: 10% Dextrose, polymer 0.0625 mg/ml, sodium DOC 0.0625 mg/ml, pH 6.44, paclitaxel 0.20 mg/ml", "value": "<6", "unit": "h"}, {"measurement": "Stability", "setting": "Examples 24-27, row 1: 10% Dextrose, polymer 0.125 mg/ml, sodium DOC 0.03125 mg/ml, pH 6.4-6.8, paclitaxel 0.20 mg/ml", "value": "<1", "unit": "h"}, {"measurement": "Stability", "setting": "Examples 24-27, row 2: 10% Dextrose, polymer 0.125 mg/ml, sodium DOC 0.0625 mg/ml, pH 6.4-6.8, paclitaxel 0.20 mg/ml", "value": "<2", "unit": "h"}, {"measurement": "Stability", "setting": "Examples 24-27, row 3: 10% Dextrose, polymer 0.125 mg/ml, sodium DOC 0.09375 mg/ml, pH 6.4-6.8, paclitaxel 0.20 mg/ml", "value": ">6", "unit": "h"}, {"measurement": "Stability", "setting": "Examples 24-27, row 4: 10% Dextrose, polymer 0.125 mg/ml, sodium DOC 0.125 mg/ml, pH 6.4-6.8, paclitaxel 0.20 mg/ml", "value": ">6", "unit": "h"}, {"measurement": "Stability", "setting": "Examples 28-35: 10% Dextrose, polymer 0.125 mg/ml, sodium DOC 0.125 mg/ml, pH 6.4-6.8, paclitaxel 0.20 mg/ml", "value": ">6", "unit": "h"}, {"measurement": "Stability", "setting": "Examples 28-35: 10% Dextrose, polymer 0.125 mg/ml, sodium DOC 0.125 mg/ml, pH 6.4-6.8, paclitaxel 0.50 mg/ml", "value": "<4", "unit": "h"}, {"measurement": "Stability", "setting": "Examples 28-35: 10% Dextrose, polymer 0.125 mg/ml, sodium DOC 0.125 mg/ml, pH 6.4-6.8, paclitaxel 0.80 mg/ml", "value": "<2", "unit": "h"}, {"measurement": "Stability", "setting": "Examples 28-35: 10% Dextrose, polymer 0.125 mg/ml, sodium DOC 0.125 mg/ml, pH 6.4-6.8, paclitaxel 2.4 mg/ml", "value": "<1", "unit": "h"}, {"measurement": "Stability", "setting": "Examples 28-35: 10% Dextrose, polymer 0.125 mg/ml, sodium DOC 0.125 mg/ml, pH 6.4-6.8, paclitaxel 3.2 mg/ml", "value": "<0.5", "unit": "h"}, {"measurement": "Stability", "setting": "Examples 28-35: 10% Dextrose, polymer 0.125 mg/ml, sodium DOC 0.125 mg/ml, pH 6.4-6.8, paclitaxel 4.0 mg/ml", "value": "<0.25", "unit": "h"}, {"measurement": "Stability", "setting": "Examples 28-35: 10% Dextrose, polymer 0.125 mg/ml, sodium DOC 0.125 mg/ml, pH 6.4-6.8, paclitaxel 10.0 mg/ml", "value": "<0.083", "unit": "h"}, {"measurement": "Stability", "setting": "Examples 28-35: 10% Dextrose, polymer 0.2 mg/ml, sodium DOC 0.2 mg/ml, pH 6.4-6.8, paclitaxel 0.80 mg/ml", "value": "<3", "unit": "h"}, {"measurement": "Stability", "setting": "Examples 28-35: 10% Dextrose, polymer 0.3 mg/ml, sodium DOC 0.3 mg/ml, pH 6.4-6.8, paclitaxel 0.50 mg/ml", "value": ">6", "unit": "h"}, {"measurement": "Stability", "setting": "Examples 28-35: 10% Dextrose, polymer 0.3 mg/ml, sodium DOC 0.3 mg/ml, pH 6.4-6.8, paclitaxel 0.60 mg/ml", "value": "<6", "unit": "h"}, {"measurement": "Stability", "setting": "Examples 28-35: 10% Dextrose, polymer 0.3 mg/ml, sodium DOC 0.3 mg/ml, pH 6.4-6.8, paclitaxel 0.70 mg/ml", "value": "<4", "unit": "h"}, {"measurement": "Stability", "setting": "Examples 28-35: 10% Dextrose, polymer 0.3 mg/ml, sodium DOC 0.3 mg/ml, pH 6.4-6.8, paclitaxel 0.80 mg/ml", "value": "<2", "unit": "h"}, {"measurement": "Stability", "setting": "Examples 36-40, row 1: 10% Dextrose, polymer 0.3 mg/ml, sodium DOC 0 mg/ml, pH 6.4-6.8, paclitaxel 0.60 mg/ml", "value": "<0.5", "unit": "h"}, {"measurement": "Stability", "setting": "Examples 36-40, row 2: 10% Dextrose, polymer 0.3 mg/ml, sodium DOC 0.10 mg/ml, pH 6.4-6.8, paclitaxel 0.60 mg/ml", "value": "<1", "unit": "h"}, {"measurement": "Stability", "setting": "Examples 36-40, row 3: 10% Dextrose, polymer 0.3 mg/ml, sodium DOC 0.15 mg/ml, pH 6.4-6.8, paclitaxel 0.60 mg/ml", "value": "<4", "unit": "h"}, {"measurement": "Stability", "setting": "Examples 36-40, row 4: 10% Dextrose, polymer 0.3 mg/ml, sodium DOC 0.2 mg/ml, pH 6.4-6.8, paclitaxel 0.60 mg/ml", "value": ">8", "unit": "h"}, {"measurement": "Stability", "setting": "Examples 36-40, row 5: 10% Dextrose, polymer 0.3 mg/ml, sodium DOC 0.25 mg/ml, pH 6.4-6.8, paclitaxel 0.60 mg/ml", "value": ">8", "unit": "h"}]}]}
